According to patent US11267825B2 (AICURIS GMBH & CO. KG, priority 2017, dated 2022):

What was measured:
HBV = assay: Determination of HBV DNA from the supernatants of HepAD38 cells (anti-HBV activity); format: cell-based, hepatitis B virus; details: Hepatitis B virus, 144 h; HBV DNA in HepAD38 supernatant at day 6; read-out: Cell Activity (EC50)
Method: Determination of HBV DNA from the Supernatants of HepAD38 Cells
The anti-HBV activity was analysed in the stable transfected cell line HepAD38, which has been described to secrete high levels of HBV virion particles (Ladner et al., 1997). In brief, HepAD38 cells were cultured at 37° C. at 5% CO2 and 95% humidity in 200 μl maintenance medium, which was Dulbecco's modified Eagle's medium/Nutrient Mixture F-12 (Gibco, Karlsruhe), 10% fetal bovine serum (PAN Biotech Aidenbach) supplemented with 50 μg/ml penicillin/streptomycin (Gibco, Karlsruhe), 2 mM L-glutamine (PAN Biotech, Aidenbach), 400 μg/ml G418 (AppliChem, Darmstadt) and 0.3 μg/ml tetracycline. Cells were subcultured once a week in a 1:5 ratio, but were usually not passaged more than ten times. For the assay 60,000 cells were seeded in maintenance medium without any tetracycline into each well of a 96-well plate and treated with serial half-log dilutions of test compound. To minimize edge effects the outer 36 wells of the plate were not used but were filled with assay medium. On each assay plate six wells for the virus control (untreated HepAD38 cells) and six wells for the cell control (HepAD38 cells treated with 0.3 μg/ml tetracycline) were allocated, respectively. In addition, one plate set with reference inhibitors like BAY 41-4109, entecavir, and lamivudine instead of screening compounds were prepared in each experiment. In general, experiments were performed thrice in triplicates. At day 6 HBV DNA from 100 μl filtrated cell culture supernatant (AcroPrep Advance 96 Filter Plate, […] Supor membran, PALL GmbH, Dreieich) was automatically purified on the MagNa Pure LC instrument using the MagNA Pure 96 DNA and Viral NA Small Volume Kit (Roche Diagnostics, Mannheim) according to the instructions of the manufacturer. EC50 values were calculated from relative copy numbers of HBV DNA. In brief, 5 μl of the 100 μl eluate containing HBV DNA were subjected to PCR LC480 Probes Master Kit (Roche) together with 1 μM antisense primer […], 0.5 μM sense primer […], 0.3 μM hybprobes […]-FL and LC640-[…]-PH (TIBMolBiol, Berlin) to a final volume of 12.5 μl. The PCR was performed on the Light Cycler 480 real time system (Roche Diagnostics, Mannheim) using the following protocol: Pre-incubation for 1 min at 95° C., amplification: 40 cycles×(10 sec at 95° C., 50 sec at 60° C., 1 sec at 70° C.), cooling for 10 sec at 40° C. Viral load was quantitated against known standards using HBV plasmid DNA of pCH-9/3091 (Nassal et al., 1990, Cell 63: 1357-1363) and the LightCycler 480 SW 1.5 software (Roche Diagnostics, Mannheim) and EC50 values were calculated using non-linear regression with GraphPad Prism 6 (GraphPad Software Inc., La Jolla, USA).

HBV core protein = HBV core protein (UniProt P03146); format: biochemical; details: read-out: Assembly Activity (IC50); BODIPY-FL labelled core protein, assembly started with NaCl, read after 6 min
Sequence of HBV core protein (P03146 whole entry, looked up): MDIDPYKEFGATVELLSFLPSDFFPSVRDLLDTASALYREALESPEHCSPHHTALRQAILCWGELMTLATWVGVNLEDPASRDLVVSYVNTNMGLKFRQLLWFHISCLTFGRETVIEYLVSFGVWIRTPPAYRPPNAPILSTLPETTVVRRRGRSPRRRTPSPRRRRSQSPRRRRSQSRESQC
Method: Biochemical Capsid Assembly Assay
The screening for assembly effector activity was done based on a fluorescence quenching assay published by Zlotnick et al. (2007). The C-terminal truncated core protein containing 149 amino acids of the N-terminal assembly domain was fused to a unique cysteine residue at position 150 and was expressed in E. coli using the pET expression system (Merck Chemicals, Darmstadt). Purification of core dimer protein was performed using a sequence of size exclusion chromatography steps. In brief, the cell pellet from 1 L BL21 (DE3) Rosetta2 culture expressing the coding sequence of core protein cloned NdeI/XhoI into expression plasmid pET21b was treated for 1 h on ice with a native lysis buffer (Qproteome Bacterial Protein Prep Kit; Qiagen, Hilden). After a centrifugation step the supernatant was precipitated during 2 h stirring on ice with 0.23 g/ml of solid ammonium sulfate. Following further centrifugation the resulting pellet was resolved in buffer A (100 mM Tris, pH 7.5; 100 mM NaCl; 2 mM DTT) and was subsequently loaded onto a buffer A equilibrated CaptoCore 700 column (GE HealthCare, Frankfurt). The column flow through containing the assembled HBV capsid was dialyzed against buffer N (50 mM NaHCO3 pH 9.6; 5 mM DTT) before urea was added to a final concentration of 3M to dissociate the capsid into core dimers for 1.5 h on ice. The protein solution was then loaded onto a 1 L Sephacryl S300 column. After elution with buffer N core dimer containing fractions were identified by SDS-PAGE and subsequently pooled and dialyzed against 50 mM HEPES pH 7.5; 5 mM DTT. To improve the assembly capacity of the purified core dimers a second round of assembly and disassembly starting with the addition of 5 M NaCl and including the size exclusion chromatography steps described above was performed. From the last chromatography step core dimer containing fractions were pooled and stored in aliquots at concentrations between 1.5 to 2.0 mg/ml at −80° C.
Immediately before labelling the core protein was reduced by adding freshly prepared DTT in a final concentration of 20 mM. After 40 min incubation on ice storage buffer and DTT was removed using a Sephadex G-25 column (GE HealthCare, Frankfurt) and 50 mM HEPES, pH 7.5. For labelling 1.6 mg/ml core protein was incubated at 4° C. and darkness overnight with BODIPY-FL maleimide (Invitrogen, Karlsruhe) in a final concentration of 1 mM. After labelling the free dye was removed by an additional desalting step using a Sephadex G-25 column. Labelled core dimers were stored in aliquots at 4° C. In the dimeric state the fluorescence signal of the labelled core protein is high and is quenched during the assembly of the core dimers to high molecular capsid structures. The screening assay was performed in black 384 well microtiter plates in a total assay volume of 10 μl using 50 mM HEPES pH 7.5 and 1.0 to 2.0 μM labelled core protein. Each screening compound was added in 8 different concentrations using a 0.5 log-unit serial dilution starting at a final concentration of 100 μM, 31.6 μM or 10 μM. In any case the DMSO concentration over the entire microtiter plate was 0.5%. The assembly reaction was started by the injection of NaCl to a final concentration of […] which induces the assembly process to approximately 25% of the maximal quenched signal. 6 min after starting the reaction the fluorescence signal was measured using a Clariostar plate reader (BMG Labtech, Ortenberg) with an excitation of 477 nm and an emission of 525 nm. As 100% and 0% assembly control HEPES buffer containing 2.5 M and 0 M NaCl was used. Experiments were performed thrice in triplicates. EC50 values were calculated by non-linear regression analysis using the Graph Pad Prism 6 software (GraphPad Software, La Jolla, USA).

Compound: CC(C)c1cccc2[nH]c(C(=O)N3CCc4nc(N)sc4C3)cc12 [Example 12, 5-[4-(propan-2-yl)-1H-indole-2-carbonyl]-4H,5H,6H,7H-[1,3]thiazolo[5,4-c]pyridin-2-amine]
- EC50 (HBV): < 1 µM
- IC50 (HBV core protein): < 5 µM

Compound: C=Cc1cccc2[nH]c(C(=O)N3CCc4nc(N)sc4C3)cc12 [Example 13, 5-(4-ethenyl-1H-indole-2-carbonyl)-4H,5H,6H,7H-[1,3]thiazolo[5,4-c]pyridin-2-amine]
- EC50 (HBV): 1 to 10 µM
- IC50 (HBV core protein): 5 to 10 µM

Compound: C#Cc1cccc2[nH]c(C(=O)N3CCc4nc(N)sc4C3)cc12 [Example 14, 5-(4-ethynyl-1H-indole-2-carbonyl)-4H,5H,6H,7H-[1,3]thiazolo[5,4-c]pyridin-2-amine]
- EC50 (HBV): 1 to 10 µM
- IC50 (HBV core protein): < 100 µM

Compound: CC(O)c1cc(F)cc2[nH]c(C(=O)N3CCc4nc(N)sc4C3)cc12 (stereo not shown) [Example 15, 1-(2-{2-amino-4H,5H,6H,7H-[1,3]thiazolo[5,4-c]pyridine-5-carbonyl}-6-fluoro-1H-indol-4-yl)ethan-1-ol]
- EC50 (HBV): 1 to 10 µM
- IC50 (HBV core protein): 5 to 10 µM

Compound: N#Cc1ccc2cc(C(=O)N3CCc4nc(N)sc4C3)[nH]c2c1 [Example 17, 2-{2-amino-4H,5H,6H,7H-[1,3]thiazolo[5,4-c]pyridine-5-carbonyl}-1H-indole-6-carbonitrile]
- EC50 (HBV): 1 to 10 µM
- IC50 (HBV core protein): < 100 µM

Compound: NCc1nc2c(s1)CN(C(=O)c1cc3ccccc3[nH]1)CC2 [Example 18, [5-(1H-indole-2-carbonyl)-4H,5H,6H,7H-[1,3]thiazolo[5,4-c]pyridin-2-yl]methanamine]
- EC50 (HBV): 1 to 10 µM
- IC50 (HBV core protein): < 100 µM

Compound: COCCC(=O)Nc1nc2c(s1)CN(C(=O)c1cc3ccccc3[nH]1)CC2 [Example 19, N-[5-(1H-indole-2-carbonyl)-4H,5H,6H,7H-[1,3]thiazolo[5,4-c]pyridin-2-yl]-3-methoxypropanamide]
- EC50 (HBV): < 1 µM
- IC50 (HBV core protein): < 5 µM

Compound: O=C(CC1CCOCC1)Nc1nc2c(s1)CN(C(=O)c1cc3ccccc3[nH]1)CC2 [Example 20, N-[5-(1H-indole-2-carbonyl)-4H,5H,6H,7H-[1,3]thiazolo[5,4-c]pyridin-2-yl]-2-(oxan-4-yl)acetamide]
- EC50 (HBV): < 1 µM
- IC50 (HBV core protein): < 5 µM

Compound: CC(Nc1nc2c(s1)CN(C(=O)c1cc3ccccc3[nH]1)CC2)C(F)(F)F (stereo not shown) [Example 22, 5-(1H-indole-2-carbonyl)-N-(1,1,1-trifluoropropan-2-yl)-4H,5H,6H,7H-[1,3]thiazolo[5,4-c]pyridin-2-amine]
- EC50 (HBV): < 1 µM
- IC50 (HBV core protein): < 100 µM

Compound: CN1CCOC(CNc2nc3c(s2)CN(C(=O)c2cc4ccccc4[nH]2)CC3)C1 (stereo not shown) [Example 23, 5-(1H-indole-2-carbonyl)-N-[(4-methylmorpholin-2-yl)methyl]-4H,5H,6H,7H-[1,3]thiazolo[5,4-c]pyridin-2-amine]
- EC50 (HBV): 1 to 10 µM
- IC50 (HBV core protein): 5 to 10 µM

Compound: CS(=O)(=O)Nc1nc2c(s1)CN(C(=O)c1cc3ccccc3[nH]1)CC2 [Example 24, N-[5-(1H-indole-2-carbonyl)-4H,5H,6H,7H-[1,3]thiazolo[5,4-c]pyridin-2-yl]methanesulfonamide]
- EC50 (HBV): 1 to 10 µM
- IC50 (HBV core protein): < 100 µM

Compound: Nc1nc2c(s1)CCN(C(=O)c1cc3ccccc3[nH]1)CC2 [Example 25, 6-(1H-indole-2-carbonyl)-4H,5H,6H,7H,8H-[1,3]thiazolo[4,5-d]azepin-2-amine]
- EC50 (HBV): < 100 µM
- IC50 (HBV core protein): < 100 µM

Compound: CC(C)(C)CC(=O)Nc1nc2c(s1)CN(C(=O)c1cc3ccccc3[nH]1)CC2 [Example 26, N-[5-(1H-indole-2-carbonyl)-4H,5H,6H,7H-[1,3]thiazolo[5,4-c]pyridin-2-yl]-3,3-dimethylbutanamide]
- EC50 (HBV): < 1 µM
- IC50 (HBV core protein): 5 to 10 µM

Compound: O=C(c1cc2ccccc2[nH]1)N1CCc2nc(NCC3(CO)CCC3)sc2C1 [Example 27, [1-({[5-(1H-indole-2-carbonyl)-4H,5H,6H,7H-[1,3]thiazolo[5,4-c]pyridin-2-yl]amino}methyl)cyclobutyl]methanol]
- EC50 (HBV): < 1 µM
- IC50 (HBV core protein): < 5 µM
